Laboratory results from patent US20260285853A1, “COMPOUNDS AND METHODS FOR MODULATING SPLICING” (REMIX THERAPEUTICS INC., priority 2023, published 2026).
Where two headings read alike, the source gives them in different places.

Assays:
Format in all cases: cell-based
HTT mRNA [1] = assay: Splicing RT-qPCR assay (THP), Table 2A
MYB mRNA [2] = assay: Splicing RT-qPCR assay (THP), Table 2A
HTT mRNA [3] = assay: Gene panel canonical junction qPCR assay, decrease in CJ mRNA, Table 3
Outline: (§1)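 A673 (DMEM, 10% FBS, 15,000 cells/well) or K562 (IMDM, 10% FBS) cells treated 24 h at 37 °C with 11-point 3-fold dilutions, top 10 uM, DMSO ≤0.25%. Canonical exon-exon junction mRNA measured by RT-qPCR, normalized to GAPDH, GUSB or PPIA and DMSO (ΔΔCt); IC50 from 4-parameter logistic fit.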

MYB mRNA [4] = assay: as above
Outline: as §1

[5] = test system: SH-SY5Y (human neuroblastoma) cells; assay: Cell viability, Cell Titer Glo 2.0 assay; settings: read-out: Viability SHSY5Y.3 GI50
Outline: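 Toxicity screen in SH-SY5Y cells. Compounds were serially diluted in DMSO and then in medium, giving 0.1% DMSO final. Viability was read with CellTiter-Glo 2.0 after 72 h at 37 °C, 5% CO2, against medium-only blank wells.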

[6] = Table 2A, THP, HTT alternative junction (AJ) mRNA, read-out: HTT AJ (AC50, increase in alternative junction mRNA)
[7] = Table 2A, THP, HTT canonical junction (CJ) mRNA, read-out: HTT CJ (IC50, decrease in canonical junction mRNA)
[8] = Table 2A, THP, MYB alternative junction (AJ) mRNA, read-out: MYB AJ (AC50, increase in alternative junction mRNA)
[9] = Table 2A, THP, MYB canonical junction (CJ) mRNA, read-out: MYB CJ (IC50, decrease in canonical junction mRNA)
[10] = decrease in CJ mRNA levels, canonical junction qPCR, gene panel
[11] = Table 2A (THP), AJ mRNA increase, read-out: HTT AJ (increase in alternative junction mRNA, AC50)
[12] = Table 2A (THP), CJ mRNA decrease, read-out: HTT CJ (decrease in canonical junction mRNA, IC50)
[13] = Table 2A (THP), AJ mRNA increase, read-out: MYB AJ (increase in alternative junction mRNA, AC50)
[14] = Table 2A (THP), CJ mRNA decrease, read-out: MYB CJ (decrease in canonical junction mRNA, IC50)
[15] = decrease in canonical junction (CJ) mRNA, gene panel qPCR, Table 3

Row | IC50 (HTT mRNA [1]; [7]) [nM] | IC50 (MYB mRNA [2]; [9]) [nM] | IC50 (HTT mRNA [3]; [10]) [nM] | IC50 (MYB mRNA [4]; [10]) [nM] | GI50 [5] [nM] | IC50 (HTT mRNA [1]; [12]) [nM] | IC50 (MYB mRNA [2]; [14]) [nM] | IC50 (HTT mRNA [3]; [15]) [nM] | IC50 (MYB mRNA [4]; [15]) [nM] | Structure (SMILES) | AC50 (HTT mRNA [1]; [6]) [nM] | AC50 (MYB mRNA [2]; [8]) [nM] | AC50 (HTT mRNA [1]; [11]) [nM] | AC50 (MYB mRNA [2]; [13]) [nM]
1 | 100 to 1000 | < 100 | 100 to 1000 | < 100 | 100 to 1000 | – | – | – | – | Cc1cn2cc(NC(=O)c3ccc(N4CCC(NC5CC5)CC4)n4nc(C)nc34)cc(F)c2n1 [Compound 640, 5-[4-(cyclopropylamino)-1-piperidyl]-N-(8-fluoro-2-methyl-imidazo[1,2-a]pyridin-6-yl)-2-methyl-[1,2,4]-triazolo[1,5-a]-pyridine-8-carboxamide] | 100 to 1000 | < 100 | – | –
2 | > 10000 | 1000 to 10000 | > 10000 | 1000 to 10000 | 1000 to 10000 | – | – | – | – | Cc1cn2cc(NC(=O)c3ccc(N4CCC(NC5CC5)CC4)c4cc(CF)nn34)nc2c(C)n1 [Compound 617, 4-[4-(cyclopropylamino)-1-piperidyl]-N-(6,8-dimethylimidazo[1,2-a]pyrazin-2-yl)-2-(fluoromethyl)-pyrazolo[1,5-a]pyridine-7-carboxamide] | > 10000 | 100 to 1000 | – | –
3 | – | – | – | – | > 10000 | > 10000 | 1000 to 10000 | > 10000 | 1000 to 10000 | COc1cc2nn(C)cc2cc1NC(=O)c1ccc(N2CCC3(CCNC3)C2)c2cn(C)nc12 (stereo not shown) [Compound 513] | – | – | > 10000 | 1000 to 10000
4 | 1000 to 10000 | < 100 | 1000 to 10000 | < 100 | 100 to 1000 | – | – | – | – | COc1nc2c(C(=O)Nc3cn4cc(C)nc4c(F)c3OC)ccc(N3C[C@H](C)N[C@@H](C)C3)c2s1 [Compound 764, 7-((3S,5S)-3,5-dimethylpiperazin-1-yl)-N-(8-fluoro-7-methoxy-2-methylimidazo[1,2-a]pyridin-6-yl)-2-methoxybenzo[d]thiazole-4-carboxamide 2,2,2-trifluoroacetate] | > 10000 | < 100 | – | –
5 | > 10000 | 1000 to 10000 | > 10000 | 1000 to 10000 | 1000 to 10000 | – | – | – | – | COc1nc2c(C(=O)Nc3cn4ccnc4c(F)c3OC)ccc(N3C[C@H](C)N[C@@H](C)C3)c2s1 [Compound 799] | > 10000 | 1000 to 10000 | – | –
6 | – | – | – | – | 1000 to 10000 | > 10000 | 1000 to 10000 | > 10000 | 1000 to 10000 | COc1c(NC(=O)c2c(F)cc(N3CCC(NC4CC4)CC3)c3cn(C)nc23)ccn2nc(C)cc12 [Compound 447, 4-(4-(cyclopropylamino)piperidin-1-yl)-6-fluoro-N-(4-methoxy-2-methylpyrazolo-[1,5-a]pyridin-5-yl)-2-methyl-2H-indazole-7-carboxamide 2,2,2-trifluoroacetate] | – | – | > 10000 | > 10000
7 | > 10000 | > 10000 | > 10000 | > 10000 | 1000 to 10000 | – | – | – | – | Cc1cn2cc(NC(=O)c3ccc(N4CCC(NC5CC5)CC4)c4cn(C)nc34)nc2c(CNC2(C)COC2)n1 [Compound 804, 4-[4-(cyclopropylamino)-1-piperidyl]-2-methyl-N-[6-methyl-8-[[(3-methyloxetan-3-yl)amino]methyl]imidazo[1,2-a]pyrazin-2-yl]indazole-7-carboxamide] | > 10000 | > 10000 | – | –
8 | – | – | – | – | > 10000 | 1000 to 10000 | 100 to 1000 | 1000 to 10000 | 100 to 1000 | CCNC1CCN(c2ccc(C(=O)Nc3cc(Oc4cccnc4)c4nc(C)cn4c3)c3nn(C)cc23)CC1 [Compound 353, 4-[4-(ethylamino)-1-piperidyl]-2-methyl-N-[2-methyl-8-(3-pyridyloxy)-imidazo[1,2-a]-pyridin-6-yl]-indazole-7-carboxamide] | – | – | 1000 to 10000 | 100 to 1000
9 | > 10000 | < 100 | > 10000 | < 100 | 100 to 1000 | – | – | – | – | COc1nc2c(C(=O)Nc3cc(C#N)c4nn(C)cc4c3)ccc(N3C[C@H](C)N[C@@H](C)C3)c2s1 [Compound 757, N-(7-cyano-2-methyl-indazol-5-yl)-7-[(3S,5S)-3,5-dimethylpiperazin-1-yl]-2-methoxy-1,3-benzothiazole-4-carboxamide] | 1000 to 10000 | < 100 | – | –
10 | – | – | – | – | > 10000 | > 10000 | 1000 to 10000 | > 10000 | 1000 to 10000 | COc1c(NC(=O)c2c(F)cc(N3CCS(=N)(=O)CC3)c3cn(C)nc23)cn2cc(C)nc2c1F [Compound 330, 6-fluoro-N-(8-fluoro-7-meth-oxy-2-methyl-imidazo[1,2-a]-pyridin-6-yl)-4-(1-imino-1-oxo-1,4-thiazinan-4-yl)-2-methyl-indazole-7-carboxamide] | – | – | > 10000 | 100 to 1000
11 | 1000 to 10000 | < 100 | 1000 to 10000 | < 100 | < 100 | – | – | – | – | COc1nc2c(C(=O)Nc3cc(F)c4nc(CO)cn4c3)ccc(N3C[C@H](C)N[C@@H](C)C3)c2s1 [Compound 810] | 100 to 1000 | < 100 | – | –
12 | 1000 to 10000 | 100 to 1000 | 1000 to 10000 | 100 to 1000 | 100 to 1000 | – | – | – | – | COc1nc2c(C(=O)Nc3cc(F)c4nn(C)cc4c3)ccc(N3CCNC(C)C3C)c2s1 (stereo not shown) [Compound 771, 7-(2,3-dimethylpiperazin-1-yl)-N-(7-fluoro-2-methyl-indazol-5-yl)-2-methoxy-1,3-benzothiazole-4-carboxamide] | > 10000 | 100 to 1000 | – | –
13 | – | – | – | – | 100 to 1000 | > 10000 | < 100 | > 10000 | < 100 | CCNC1CCN(c2cc(F)c(C(=O)Nc3cn4cc(C)nc(Cl)c4n3)c3nn(C)cc23)CC1 [Compound 391, N-(8-chloro-6-methyl-imidazo[1,2-a]-pyrazin-2-yl)-4-[4-(ethylamino)-1-piperidyl]-6-fluoro-2-methyl-indazole-7-carboxamide] | – | – | > 10000 | < 100
14 | > 10000 | 100 to 1000 | > 10000 | 100 to 1000 | 1000 to 10000 | – | – | – | – | COc1nc2c(C(=O)Nc3cc(F)c4nn(C)cc4c3)ccc(N3CCN[C@@H](C(C)(C)C)C3)c2s1 [Compound 742, 7-[(3S)-3-tert-butylpiperazin-1-yl]-N-(7-fluoro-2-methyl-indazol-5-yl)-2-methoxy-1,3-benzothiazole-4-carboxamide] | > 10000 | 100 to 1000 | – | –
15 | > 10000 | 100 to 1000 | – | – | 1000 to 10000 | – | – | > 10000 | 100 to 1000 | CCNC1CCN(c2ccc(C(=O)Nc3cc4cn(C)nc4cc3OC)c3nn(C)cc23)CC1C (stereo not shown) [Compound 605] | 1000 to 10000 | 100 to 1000 | – | –
16 | – | – | – | – | 1000 to 10000 | > 10000 | 1000 to 10000 | > 10000 | 1000 to 10000 | CC1OB(O)c2cc(NC(=O)c3c(F)cc(N4CCC(NC5CC5)CC4)c4cn(C)nc34)ccc21 (stereo not shown) [Compound 490, 4-(4-(cyclopropylamino)piperidin-1-yl)-6-fluoro-N-(1-hydroxy-3-methyl-1,3-dihydrobenzo[c]-[1,2]oxaborol-6-yl)-2-methyl-2H-indazole-7-carboxamide 2,2,2-trifluoroacetate] | – | – | > 10000 | > 10000
